# Laboratory results published in patent US20020068749A1, “AIDS REMEDY” (priority 1996, published 2002).
# Columns and labels:
# [1] = Dynamics in vivo (concentration in plasma over time) of KNI-272 and Ritonavir in dogs; conditions: for MRT / AUC / Cmax / Tmax: dog, plasma, 15 mg/kg
# [2] = Change of concentration in plasma over time after oral administration to rats (KNI-272 with Indinavir or Nelfinavir); conditions: for AUC: rat, plasma, po
# Protocol: In this example, the change in concentration in blood of KNI-272 over time when the KNI-272 was orally administered in combination with Indinavir, i.e. the change in the concentration of a non-binding type of drug in plasma over time, was measured to evaluate the effect of drug interactions on fluctuations of dynamics in vivo. A commercially available Indinavir for oral administration, CRIXIVAN™ (manufactured by Merck), was used after dissolving Indinavir sulfate in a prescribed concentration. As KNI-272, a suspension prepared from a fine powder of KNI-272 was used. Rats were used as test animals. […] In addition, each compound was individually administered to control groups to evaluate the dynamics in vivo. The animals were fasted for 16 hours before administration. The measurement of the change in the non-binding drug concentration in plasma over time was carried out according to a conventional method using blood samples collected from the test animals.
# The method of evaluation was applied to the above-mentioned system of Indinavir and KNI-272 was followed. […] In this example, a dosage of 50 mg/kg was selected for both Nelfinavir and KNI-272.
# HIV Wild strain (IIIB) = test: Anti-virus activity IC50 against wild strain; assay type: cell-based; conditions: Human immunodeficiency virus 1, IIIB, read-out: Anti-virus activity IC50
# [3] = test system: Indinavir resistant strain; test: Anti-virus activity IC50 against Indinavir resistant strain; assay type: cell-based, HIV; conditions: Human immunodeficiency virus 1, read-out: Anti-virus activity IC50
# Text: (§1) A drug resistant strain virus is a resistance strains induced in a cell culture system in vitro while maintaining infection in the presence of each medicament through generations.
# KNI-272 resistant strain = test: microbe, parasite or virus in culture; assay type: cell-based, HIV; conditions: Human immunodeficiency virus 1, read-out: Anti-virus activity IC50
# Text: as §1
# [4] = test system: Ritonavir resistant strain; test: Anti-virus activity IC50 against Ritonavir resistant strain; assay type: cell-based, HIV; conditions: Human immunodeficiency virus 1, read-out: Anti-virus activity IC50
# [5] = po, KNI-272 15 mg/kg p.o., administered after Ritonavir, dogs
# [6] = po, KNI-272 15 mg/kg p.o., administered before Ritonavir, dogs
# [7] = Indinavir 40 mg/kg + KNI-272 40 mg/kg p.o. at the same time
compound,measurement,setting,value
"CSC[C@H](NC(=O)COc1cccc2cnccc12)C(=O)N[C@@H](Cc1ccccc1)[C@H](O)C(=O)N1CSC[C@H]1C(=O)NC(C)(C)C [KNI-272, (R)-N-1,1-dimethylethyl-3-[(2S,3S)-2-hydroxy-3-[(R)-2-(5-isoquinolyloxyacetyl)amino-3-methylthiopropanoyl]amino-4-phenylbutanoyl]-1,3-thiazolidine-4-carboxyamide]",Cltot,"[1]; KNI-272 15 mg/kg i.v., dogs",1.49 h⁻¹ kg⁻¹
same,Vd(ss),"[1]; KNI-272 15 mg/kg i.v., dogs",0.70 kg⁻¹
same,F,"[1]; KNI-272 15 mg/kg p.o., administered after Ritonavir, dogs",55.2%
same,F,"[1]; KNI-272 15 mg/kg p.o., administered before Ritonavir, dogs",4.6%
same,MRT,"[1]; iv, KNI-272 15 mg/kg i.v., dogs",28.2 min
same,AUC,"[1]; iv, KNI-272 15 mg/kg i.v., independent administration, dogs",10100 ng·h/mL
same,AUC,"[1]; po, KNI-272 15 mg/kg p.o., administered after Ritonavir (100 mg/body p.o., 30 min interval), dogs",5570 ng·h/mL
same,Cmax,[1]; [5],2800 ng/mL
same,MRT,[1]; [5],96.8 min
same,Tmax,[1]; [5],30 min
same,AUC,"[1]; po, KNI-272 15 mg/kg p.o., administered before Ritonavir (100 mg/body p.o., 30 min interval), dogs",467 ng·h/mL
same,Cmax,[1]; [6],1000 ng/mL
same,MRT,[1]; [6],30.8 min
same,Tmax,[1]; [6],5 min
same,MRT value (index of the half-life of concentration in blood),[1]; medicaments individually administered,30 min
same,increase in maximum concentration value in blood (Cmax) of KNI-272,[2]; [7],about twice
same,increase in the value of AUC of KNI-272,[2]; [7],about a six-times increase
same,increase in AUC value of KNI-272,[2]; KNI-272 10 mg/kg one hour after Indinavir 90 mg/kg,about 10 times
same,decrease in the maximum concentration value in blood Cmax of KNI-272 (to fraction),[2]; KNI-272 50 mg/kg with Nelfinavir 50 mg/kg vs alone,about ¼
same,increase in the maximum concentration value in blood (Cmax) of KNI-272,[2]; KNI-272 administered one hour after Indinavir,3 times
same,AUC,"[2]; 10 mg/kg, AUC value of KNI-272, KNI-272 10 mg/kg p.o., no Indinavir",660 ng·h/mL
same,AUC,"[2]; 40 mg/kg, AUC value of KNI-272, KNI-272 40 mg/kg p.o. individually",4900 ng·h/mL
same,AUC,"[2]; 40 mg/kg, AUC value of KNI-272, KNI-272 40 mg/kg p.o. together with Indinavir 40 mg/kg",29200 ng·h/mL
same,AUC,"[2]; 50 mg/kg, AUC value for KNI-272, KNI-272 50 mg/kg p.o. only",9170 ng·h/mL
same,AUC,"[2]; 50 mg/kg, AUC value for KNI-272, KNI-272 50 mg/kg p.o. simultaneously with Nelfinavir 50 mg/kg",10300 ng·h/mL
same,AUC,"[2]; AUC value of KNI-272, KNI-272 10 mg/kg p.o. one hour after Indinavir 90 mg/kg",6900 ng·h/mL
same,IC50,HIV Wild strain (IIIB),0.007 µg/mL
same,IC50,[3],0.01 µg/mL
same,IC50,KNI-272 resistant strain,0.32 µg/mL
same,IC50,[4],0.304 µg/mL
